This assay addresses human TYK2 (JH2domain-pseudokinase) (Homo sapiens (Human), UniProt P29597). Kind of assay: TYK2 JH2 Domain Binding Assay (KINOMEscan, DiscoveRx). The conditions noted are these: 11-point dilution, duplicate. How it is done:
Binding constants for compounds of the present invention against the JH2 domain were determined by the following protocol for a KINOMEscan® assay (DiscoveRx). A fusion protein of a partial length construct of human TYK2 (JH2domain-pseudokinase) (amino acids G556 to D888 based on reference sequence NP_003322.3) and the DNA binding domain of NFkB was expressed in transiently transfected HEK293 cells. From these HEK 293 cells, extracts were prepared in M-PER extraction buffer (Pierce) in the presence of Protease Inhibitor Cocktail Complete (Roche) and Phosphatase Inhibitor Cocktail Set II (Merck) per manufacturers' instructions. The TYK2 (JH2domain-pseudokinase) fusion protein was labeled with a chimeric double-stranded DNA tag containing the NFkB binding site (5′-GGGAATTCCC-3′) fused to an amplicon for qPCR readout, which was added directly to the expression extract (the final concentration of DNA-tag in the binding reaction is 0.1 nM).
Streptavidin-coated magnetic beads (Dynal M280) were treated with a biotinylated small molecule ligand for 30 minutes at room temperature to generate affinity resins the binding assays. The liganded beads were blocked with excess biotin and washed with blocking buffer (SeaBlock (Pierce), 1% BSA, 0.05% Tween 20, 1 mM DTT) to remove unbound ligand and to reduce nonspecific binding.
The binding reaction was assembled by combining 16 μl of DNA-tagged kinase extract, 3.8 μl liganded affinity beads, and 0.18 μl test compound (PBS/0.05% Tween 20/10 mM DTT/0.1% BSA/2 μg/ml sonicated salmon sperm DNA)]. Extracts were used directly in binding assays without any enzyme purification steps at a ≥10,000-fold overall stock dilution (final DNA-tagged enzyme concentration <0.1 nM). Extracts were loaded with DNA-tag and diluted into the binding reaction in a two step process. First extracts were diluted 1:100 in 1× binding buffer (PBS/0.05% Tween 20/10 mM DTT/0.1% BSA/2 μg/ml sonicated salmon sperm DNA) containing 10 nM DNA-tag. This dilution was allowed to equilibrate at room temperature for 15 minutes and then subsequently diluted 1:100 in 1× binding buffer. Test compounds were prepared as 111× stocks in 100% DMSO. Kds were determined using an 11-point 3-fold compound dilution series with three DMSO control points. All compounds for Kd measurements are distributed by acoustic transfer (non-contact dispensing) in 100% DMSO. The compounds were then diluted directly into the assays such that the final concentration of DMSO was 0.9%. All reactions performed in polypropylene 384-well plates. Each was a final volume of 0.02 mL. Assays were incubated with shaking for 1 hour at room temperature. Then the beads were pelleted and washed with wash buffer (1×PBS, 0.05% Tween 20) to remove displaced kinase and test compound. The washed based were re-suspended in elution buffer (1×PBS, 0.05% Tween 20, 0.5 μM non-biotinylated affinity ligand) and incubated at room temperature with shaking for 30 minutes. The kinase concentration in the eluates was measured by qPCR. qPCR reactions were assembled by adding 2.5 μL of kinase eluate to 7.5 μL of qPCR master mix containing 0.15 μM amplicon primers and 0.15 μM amplicon probe. The qPCR protocol consisted of a 10 minute hot start at 95° C., followed by 35 cycles of 95° C. for 15 seconds, 60° C. for 1 minute.
Test compounds were prepared as 111× stocks in 100% DMSO. Kds were determined using an 11-point 3-fold compound dilution series with three DMSO control points. All compounds for Kd measurements are distributed by acoustic transfer (non-contact dispensing) in 100% DMSO. The compounds were then diluted directly into the assays such that the final concentration of DMSO was 0.9%. The Kds were determined using a compound top concentration of 30,000 nM. Kd measurements were performed in duplicate.
Binding constants (Kds) were calculated with a standard dose-response curve using the Hill equation: […]
The Hill Slope was set to −1. […]
human TYK2 (JH2domain-pseudokinase), sequence (P29597 556-888): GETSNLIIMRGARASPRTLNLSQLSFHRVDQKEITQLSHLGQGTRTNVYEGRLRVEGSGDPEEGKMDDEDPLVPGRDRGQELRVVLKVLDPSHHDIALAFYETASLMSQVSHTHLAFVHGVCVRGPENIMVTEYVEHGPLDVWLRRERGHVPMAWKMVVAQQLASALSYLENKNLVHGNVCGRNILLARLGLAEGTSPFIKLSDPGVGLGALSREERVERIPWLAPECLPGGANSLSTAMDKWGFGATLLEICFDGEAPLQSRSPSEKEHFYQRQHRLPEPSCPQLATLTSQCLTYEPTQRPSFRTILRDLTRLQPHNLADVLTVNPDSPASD
Consider `CS(=O)(=O)c1cc(C2COCCO2)ccc1Nc1cc(NC(=O)C2CC2)nc2[nH]c(C(F)F)nc12` (stereo in doubt) [I-614, (S)—N-(7-((4-(1,4-dioxan-2-yl)-2-(methylsulfonyl)phenyl)amino)-2-(difluoromethyl)-3H-imidazo[4,5-b]pyridin-5-yl)cyclopropanecarboxamide], for which the dissociation constant Kd lay in the range of 0.1 to 0.5 nM.
The value for `COc1c(Nc2cc(NC(=O)C3CC3)nc3[nH]cnc23)cccc1-c1ncn(C)n1` [I-1, N-(7-((2-methoxy-3-(1-methyl-1H-1,2,4-triazol-3-yl)phenyl)amino)-3H-imidazo[4,5-b]pyridin-5-yl)cyclopropanecarboxamide] was 0.1 to 0.5 nM; that for `COc1c(Nc2cc(Nc3cc(C)c(F)cn3)nc3[nH]cnc23)cccc1-c1ncn(C)n1` [I-2, N5-(5-fluoro-4-methylpyridin-2-yl)-N7-(2-methoxy-3-(1-methyl-1H-1,2,4-triazol-3-yl)phenyl)-3H-imidazo[4,5-b]pyridine-5,7-diamine] was 0.5 to 1 nM; that for `COc1c(Nc2cc(Nc3cc(C)nc(C)n3)nc3[nH]cnc23)cccc1-c1ncn(C)n1` [I-3, N5-(2,6-dimethylpyrimidin-4-yl)-N7-(2-methoxy-3-(1-methyl-1H-1,2,4-triazol-3-yl)phenyl)-3H-imidazo[4,5-b]pyridine-5,7-diamine] was 0.1 to 0.5 nM.
Under `COc1c(Nc2cc(Nc3ccc(C)nn3)nc3[nH]cnc23)cccc1-c1ncn(C)n1` [I-4, N7-(2-methoxy-3-(1-methyl-1H-1,2,4-triazol-3-yl)phenyl)-N5-(6-methylpyridazin-3-yl)-3H-imidazo[4,5-b]pyridine-5,7-diamine] stands 0.1 to 0.5 nM; under `COc1c(Nc2cc(Nc3cc(CO)ccn3)nc3[nH]cnc23)cccc1-c1ncn(C)n1` [I-5, (2-((7-((2-methoxy-3-(1-methyl-1H-1,2,4-triazol-3-yl)phenyl)amino)-3H-imidazo[4,5-b]pyridin-5-yl)amino)pyridin-4-yl)MeOH], 0.5 to 1 nM.
Under `COc1c(Nc2cc(Nc3ccc(N4CCCCC4)cn3)nc3[nH]cnc23)cccc1-c1ncn(C)n1` [I-6, N7-(2-methoxy-3-(1-methyl-1H-1,2,4-triazol-3-yl)phenyl)-N5-(5-(piperidin-1-yl)pyridin-2-yl)-3H-imidazo[4,5-b]pyridine-5,7-diamine] stands 0.5 to 1 nM; under `COc1c(Nc2cc(Nc3ccc(N4CCOCC4)cn3)nc3[nH]cnc23)cccc1-c1ncn(C)n1` [I-7, N7-(2-methoxy-3-(1-methyl-1H-1,2,4-triazol-3-yl)phenyl)-N5-(5-morpholinopyridin-2-yl)-3H-imidazo[4,5-b]pyridine-5,7-diamine], 0.1 to 0.5 nM.
In turn, `COc1c(Nc2cc(Nc3ccn(C)n3)nc3[nH]cnc23)cccc1-c1ncn(C)n1` [I-8, N7-(2-methoxy-3-(1-methyl-1H-1,2,4-triazol-3-yl)phenyl)-N5-(1-methyl-1H-pyrazol-3-yl)-3H-imidazo[4,5-b]pyridine-5,7-diamine] came in with a Kd of 1 to 10 nM.
`COc1c(Nc2cc(NC(=O)C3CC3)nc3[nH]c(C4CC4)nc23)cccc1-c1ncn(C)n1` [I-9, N-(2-cyclopropyl-7-((2-methoxy-3-(1-methyl-1H-1,2,4-triazol-3-yl)phenyl)amino)-3H-imidazo[4,5-b]pyridin-5-yl)cyclopropanecarboxamide] returned a dissociation constant Kd of more than 10 nM.
The value for `COc1c(Nc2cc(NC(=O)C3CC3)nc3[nH]c(CO)nc23)cccc1-c1ncn(C)n1` [I-10, N-(2-(hydroxymethyl)-7-((2-methoxy-3-(1-methyl-1H-1,2,4-triazol-3-yl)phenyl)amino)-3H-imidazo[4,5-b]pyridin-5-yl)cyclopropanecarboxamide] was 1 to 10 nM.
The value for `COc1nc2c(Nc3cccc(-c4ncn(C)n4)c3OC)cc(NC(=O)C3CC3)nc2[nH]1` [I-11] was 1 to 10 nM; that for `COc1c(Nc2cc(NC(=O)C3CC3)nc3[nH]c(C(F)F)nc23)cccc1-c1ncn(C)n1` [I-13, N-(2-(difluoromethyl)-7-((2-methoxy-3-(1-methyl-1H-1,2,4-triazol-3-yl)phenyl)amino)-3H-imidazo[4,5-b]pyridin-5-yl)cyclopropanecarboxamide] was 0.1 to 0.5 nM; that for `COc1c(Nc2cc(NC(=O)C3CC3)nc3[nH]c(C(F)F)nc23)cccc1-c1nnn(C)n1` [I-14, N-(2-(difluoromethyl)-7-((2-methoxy-3-(2-methyl-2H-tetrazol-5-yl)phenyl)amino)-3H-imidazo[4,5-b]pyridin-5-yl)cyclopropanecarboxamide] was 0.1 to 0.5 nM.
The value for `COc1cc(C(=O)N2CCOCC2)ccc1Nc1cc(NC(=O)C2CC2)nc2[nH]c(C(F)F)nc12` [I-15, N-(2-(difluoromethyl)-7-((2-methoxy-4-(morpholine-4-carbonyl)phenyl)amino)-3H-imidazo[4,5-b]pyridin-5-yl)cyclopropanecarboxamide] was 1 to 10 nM; that for `COc1cc(C(=O)N2CCC2)ccc1Nc1cc(NC(=O)C2CC2)nc2[nH]c(C(F)F)nc12` [I-16, N-(7-((4-(azetidine-1-carbonyl)-2-methoxyphenyl)amino)-2-(difluoromethyl)-3H-imidazo[4,5-b]pyridin-5-yl)cyclopropanecarboxamide] was 0.5 to 1 nM.
Regarding `COc1c(Nc2cc(Nc3cccc(C#N)n3)nc3[nH]c(C(F)F)nc23)cccc1-c1nnn(C)n1` [I-17, 6-((2-(difluoromethyl)-7-((2-methoxy-3-(2-methyl-2H-tetrazol-5-yl)phenyl)amino)-3H-imidazo[4,5-b]pyridin-5-yl)amino)picolinonitrile], the Kd lay in the range of 0.1 to 0.5 nM.
The value for `COc1cc(N2CCCC2=O)ccc1Nc1cc(NC(=O)C2CC2)nc2[nH]c(C(F)F)nc12` [I-18] was 1 to 10 nM; that for `COc1c(Cl)cccc1Nc1cc(NC(=O)C2CC2)nc2[nH]c(C(F)F)nc12` [I-19, N-(7-((3-chloro-2-methoxyphenyl)amino)-2-(difluoromethyl)-3H-imidazo[4,5-b]pyridin-5-yl)cyclopropanecarboxamide] was more than 10 nM; that for `COc1c(F)cccc1Nc1cc(NC(=O)C2CC2)nc2[nH]c(C(F)F)nc12` [I-20, N-(2-(difluoromethyl)-7-((3-fluoro-2-methoxyphenyl)amino)-3H-imidazo[4,5-b]pyridin-5-yl)cyclopropanecarboxamide] was more than 10 nM.
Under `COc1c(Nc2cc(Nc3cnc(C)c(C)n3)nc3[nH]c(C(F)F)nc23)cccc1-c1nnn(C)n1` [I-21, 2-(difluoromethyl)-N5-(5,6-dimethylpyrazin-2-yl)-N7-(2-methoxy-3-(2-methyl-2H-tetrazol-5-yl)phenyl)-3H-imidazo[4,5-b]pyridine-5,7-diamine] stands 0.5 to 1 nM; under `COc1c(Nc2cc(Nc3ccc(N4CCC4)cn3)nc3[nH]c(C(F)F)nc23)cccc1-c1nnn(C)n1` [I-22, N5-(5-(azetidin-1-yl)pyridin-2-yl)-2-(difluoromethyl)-N7-(2-methoxy-3-(2-methyl-2H-tetrazol-5-yl)phenyl)-3H-imidazo[4,5-b]pyridine-5,7-diamine], 1 to 10 nM.
In the case of `COc1c(Nc2cc(Nc3ccc(N4CC(O)C4)cn3)nc3[nH]c(C(F)F)nc23)cccc1-c1nnn(C)n1` [I-23, I-(6-((2-(difluoromethyl)-7-((2-methoxy-3-(2-methyl-2H-tetrazol-5-yl)phenyl)amino)-3H-imidazo[4,5-b]pyridin-5-yl)amino)pyridin-3-yl)azetidin-3-ol], the Kd fell in the range of 1 to 10 nM.
Under `COc1c(Nc2cc(Nc3cccc(C#N)n3)nc3[nH]c(C(F)F)nc23)cccc1-c1ccn(C)n1` [I-25, 6-((2-(difluoromethyl)-7-((2-methoxy-3-(1-methyl-1H-pyrazol-3-yl)phenyl)amino)-3H-imidazo[4,5-b]pyridin-5-yl)amino)picolinonitrile] stands 0.1 to 0.5 nM.

Values taken from US10647713B2 (Nimbus Lakshmi, Inc., priority 2016, dated 2020).
